Laboratory results published in patent US12293809B2, “Workflow for generating compounds with biological activity against a specific biological target” (INSILICO MEDICINE IP LIMITED, priority 2019, dated 2025).
Like-named read-outs stand apart in the source and are kept apart here.

Assays:
LX-2 cells = experiment: Cytotoxicity, CellTiter-Glo cell viability assay; type: cell-based, human; conditions: 72 h
Protocol: LX-2 cells were seeded into 96 well plates in the presence of a compound and allowed to grow for 72 h before CellTiter-Glo® Luminescent Cell Viability Assay was carried out according the manufacturer's instruction.

hDDR2 = target: T1, hDDR2 (Homo sapiens, UniProt Q16832); experiment: KinaseProfiler radiometric biochemical kinase assay (Eurofins)
T1 construct: purchased Eurofins
T1 sequence (Q16832 22-855): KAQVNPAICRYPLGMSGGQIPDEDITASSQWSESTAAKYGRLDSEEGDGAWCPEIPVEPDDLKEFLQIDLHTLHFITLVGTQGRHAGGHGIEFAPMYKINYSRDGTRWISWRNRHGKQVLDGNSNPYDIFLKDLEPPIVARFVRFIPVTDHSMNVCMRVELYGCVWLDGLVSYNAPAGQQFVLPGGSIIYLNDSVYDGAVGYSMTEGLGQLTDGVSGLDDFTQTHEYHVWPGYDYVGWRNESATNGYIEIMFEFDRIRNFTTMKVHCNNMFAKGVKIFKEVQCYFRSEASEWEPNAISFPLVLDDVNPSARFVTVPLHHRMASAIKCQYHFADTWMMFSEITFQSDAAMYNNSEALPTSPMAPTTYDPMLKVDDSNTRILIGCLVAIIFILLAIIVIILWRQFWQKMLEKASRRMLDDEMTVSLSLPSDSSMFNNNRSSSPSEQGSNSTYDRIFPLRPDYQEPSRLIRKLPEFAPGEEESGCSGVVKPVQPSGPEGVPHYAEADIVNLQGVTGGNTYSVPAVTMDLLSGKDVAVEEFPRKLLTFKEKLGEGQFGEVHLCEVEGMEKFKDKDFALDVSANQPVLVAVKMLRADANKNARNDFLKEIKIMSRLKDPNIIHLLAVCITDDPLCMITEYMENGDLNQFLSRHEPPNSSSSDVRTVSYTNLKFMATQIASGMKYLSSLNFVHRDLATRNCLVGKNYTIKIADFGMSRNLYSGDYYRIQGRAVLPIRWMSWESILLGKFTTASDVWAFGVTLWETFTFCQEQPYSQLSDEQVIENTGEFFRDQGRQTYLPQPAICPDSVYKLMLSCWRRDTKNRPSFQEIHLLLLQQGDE
Protocol: The experimental procedures were performed by Eurofins. The activity of the molecules against hDDR1 and hDDR2 kinases was assessed using KinaseProfiler^67. […] The enzymatic reaction processed in the presence of Mg^2+ cations and ATP at room temperature for 40 minutes and terminated by addition of phosphoric acid. […] All the compounds were prepared in 100% DMSO. […] The biological evaluation of selectivity against non-target kinases was performed in Dundee Eurofins, using Scan Max Delta Panel [10 μM ATP] KinaseProfiler^68.

[1] = tested on: α-actin expression in MRC-5 cells; experiment: MRC-5 fibrosis assay, TGF-β stimulated (Western blot); type: cell-based
Protocol: After 20 h growth in the reduced serum medium, the cells were treated with indicated doses of compounds for 30 minutes. Subsequently, the cells were stimulated with 10 ng/mL TGF-β (R&D Systems, 240-B-002) for 48 or 72 hours.

[2] = tested on: collagen α1 production in LX-2 cells; experiment: LX-2 fibrosis assay, TGF-β stimulated (Western blot); type: cell-based, human
Protocol: (§1) Collagen α1, α-SMA, CTGF and GAPDH were traced using Western blot analysis. DMSO and SB-525334 were used as negative and positive controls, respectively.
(§2) Human hepatic stellate cells LX-2 were grown in DMEM (Invitrogen, 11960) supplied with 1% MEM Non-Essential Amino Acids (Invitrogen, 11140-050), 2% fetal bovine serum (Hyclone, SV30087.03), Penicillin (100 U/mL)-streptomycin (100 μg/mL) (Millipore, TMS-AB2-C) and 2 mM L-Glutamine (Invitrogen, 25030-001). After the cells grew in 12-well plates for 24 h, the cell culture medium was changed to the same as above except using 0.4% fetal bovine serum. After 20 h growth in the reduced serum medium, the cells were treated with indicated doses of compounds for 30 minutes. Subsequently, the cells were stimulated with 4 ng/mL TGF-β (R&D Systems, 240-B-002) for 48 h. The cells were rinsed twice with DPBS before being harvested with 100 μL RIPA buffer (Sigma, R0278) supplemented with protease inhibitor cocktail (Roche, 04693132001) at 4° C. The total protein in each sample was quantified using BCA Protein Assay Kit (Pierce™, 23227) and equal amount of total protein of each sample was subject to Western blot analysis. Antibodies used were mouse anti-α-Actin (SPM332) (sc-365970), mouse anti-CTGF (E5) (sc-365970), and mouse anti-collagen al (3G3) (sc-293182), from Santa Cruz Biotechnologies; and mouse anti-GAPDH (6C5) (EMD Millipore, MAB374).

[3] = tested on: CTGF production in LX-2 cells; experiment: as above; type: cell-based, human
Protocol: as §1, §2

CYP3A4-M = target: T2, CYP3A4-M (Homo sapiens, UniProt P08684); experiment: Cytochrome inhibition in HLM; type: in vitro ADME
T2 construct: from tissue; host or cells: human liver microsomes (HLM)
Protocol: (§3) Water used in the assay and analysis was purified by ELGA Lab purification systems. Potassium phosphate buffer (PB) in concentration of 100 mM and MgCl2 in concentration of 33 mM were used. […] Microsomes were pulled out of the −80° C. freezer to thaw on ice, labeled the date and put back to freezer immediately after using. 20 μL of the substrates solutions were added to corresponding wells. 20 μL PB were added to Blank wells. 2 μL of the test compounds and positive control working solution were added to corresponding wells. Then, HLM working solution was prepared. 158 μL of the HLM working solution was added to all wells of incubation plate. The plate was pre-warmed for about 10 min at 37° C. water bath. Then, NADPH cofactor solution was prepared. 20 μL NADPH cofactor was added to all incubation wells. The solution was mixed and incubated for 10 minutes at 37° C. water bath. At the time point, the reaction was terminated by adding 400 μL cold stop solution (200 ng/mL Tolbutamide and 200 ng/mL Labetalol in ACN). The samples were centrifuged at 4000 rpm for 20 minutes to precipitate protein. 200 μL supernatant was transferred to 100 μL HPLC water and shaken for 10 min. XL fit was used to plot the percent of vehicle control versus the test compound concentrations, and for non-linear regression analysis of the data. IC50 values were determined using 3- or 4-parameter logistic equation.

CYP2C19 = target: T3, CYP2C19 (Homo sapiens, UniProt P33261); experiment: Cytochrome inhibition in HLM; type: in vitro ADME
T3 construct: from tissue; host or cells: human liver microsomes (HLM)
Protocol: as §3

CYP2D6 = target: T4, CYP2D6 (Homo sapiens, UniProt P10635); experiment: Cytochrome inhibition in HLM; type: in vitro ADME
T4 construct: from tissue; host or cells: human liver microsomes (HLM)
Protocol: as §3

CYP2C9 = target: T5, CYP2C9 (Homo sapiens, UniProt P11712); experiment: Cytochrome inhibition in HLM; type: in vitro ADME
T5 construct: from tissue; host or cells: human liver microsomes (HLM)
Protocol: as §3

T4 sequence (P10635 whole entry): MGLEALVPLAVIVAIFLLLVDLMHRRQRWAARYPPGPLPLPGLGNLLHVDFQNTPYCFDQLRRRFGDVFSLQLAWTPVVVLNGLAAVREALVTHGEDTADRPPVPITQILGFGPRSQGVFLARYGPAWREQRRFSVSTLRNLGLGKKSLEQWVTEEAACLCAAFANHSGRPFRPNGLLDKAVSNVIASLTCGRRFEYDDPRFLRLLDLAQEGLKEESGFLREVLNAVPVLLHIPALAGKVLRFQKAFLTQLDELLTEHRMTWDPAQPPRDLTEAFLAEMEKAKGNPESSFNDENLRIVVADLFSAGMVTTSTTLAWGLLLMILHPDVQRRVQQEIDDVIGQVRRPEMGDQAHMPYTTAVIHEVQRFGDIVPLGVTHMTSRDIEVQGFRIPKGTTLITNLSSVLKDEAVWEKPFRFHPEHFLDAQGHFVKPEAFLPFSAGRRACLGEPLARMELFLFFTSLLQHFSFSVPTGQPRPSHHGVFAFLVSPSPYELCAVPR
T2 sequence (P08684 whole entry): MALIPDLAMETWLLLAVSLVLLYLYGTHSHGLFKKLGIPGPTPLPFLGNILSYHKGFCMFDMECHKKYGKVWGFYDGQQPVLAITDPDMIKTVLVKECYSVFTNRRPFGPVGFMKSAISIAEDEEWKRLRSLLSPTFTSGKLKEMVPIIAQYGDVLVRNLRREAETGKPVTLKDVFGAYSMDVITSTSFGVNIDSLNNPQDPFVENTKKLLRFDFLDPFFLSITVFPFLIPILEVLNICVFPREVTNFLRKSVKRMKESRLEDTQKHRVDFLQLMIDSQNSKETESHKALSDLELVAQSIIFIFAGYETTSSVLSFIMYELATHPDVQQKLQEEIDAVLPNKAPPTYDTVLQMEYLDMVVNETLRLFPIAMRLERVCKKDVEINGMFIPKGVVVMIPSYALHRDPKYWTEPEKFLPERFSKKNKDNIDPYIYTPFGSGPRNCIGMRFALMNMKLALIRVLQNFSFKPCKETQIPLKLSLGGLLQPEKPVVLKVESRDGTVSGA
T3 sequence (P33261 whole entry): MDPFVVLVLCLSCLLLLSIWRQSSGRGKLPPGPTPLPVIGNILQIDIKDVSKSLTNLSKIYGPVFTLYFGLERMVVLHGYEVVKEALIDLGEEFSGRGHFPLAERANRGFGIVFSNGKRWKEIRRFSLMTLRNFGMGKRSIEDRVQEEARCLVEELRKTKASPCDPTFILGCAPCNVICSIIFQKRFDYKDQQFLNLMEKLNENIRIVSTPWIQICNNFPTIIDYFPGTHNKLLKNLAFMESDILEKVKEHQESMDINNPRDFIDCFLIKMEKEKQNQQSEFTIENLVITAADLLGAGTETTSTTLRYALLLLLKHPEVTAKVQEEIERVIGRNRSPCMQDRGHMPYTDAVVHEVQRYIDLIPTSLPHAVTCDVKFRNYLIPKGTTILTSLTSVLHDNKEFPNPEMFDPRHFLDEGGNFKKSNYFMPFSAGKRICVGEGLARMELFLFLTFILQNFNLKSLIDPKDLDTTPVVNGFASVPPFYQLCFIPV
T5 sequence (P11712 whole entry): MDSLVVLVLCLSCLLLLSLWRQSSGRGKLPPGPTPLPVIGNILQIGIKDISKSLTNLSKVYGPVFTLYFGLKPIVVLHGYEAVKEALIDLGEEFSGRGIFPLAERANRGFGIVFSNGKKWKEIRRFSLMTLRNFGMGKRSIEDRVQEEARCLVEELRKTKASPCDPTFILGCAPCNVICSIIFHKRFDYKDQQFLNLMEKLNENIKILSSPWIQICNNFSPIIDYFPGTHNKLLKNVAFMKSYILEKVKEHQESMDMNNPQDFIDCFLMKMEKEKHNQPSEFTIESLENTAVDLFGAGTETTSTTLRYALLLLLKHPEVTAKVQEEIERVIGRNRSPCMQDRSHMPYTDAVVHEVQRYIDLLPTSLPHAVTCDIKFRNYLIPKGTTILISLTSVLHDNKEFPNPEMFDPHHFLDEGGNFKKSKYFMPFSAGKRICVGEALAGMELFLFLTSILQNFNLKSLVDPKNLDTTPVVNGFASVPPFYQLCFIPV

Structure (SMILES) | CC50 (LX-2 cells) | activity towards DDR2 weaker than for DDR1 (hDDR2; DDR2 vs DDR1) | dose dependence of effect on α-actin expression ([1]; MRC-5) | IC50 ([2]; TGF-β stimulated LX-2 cells, normalized to GAPDH, read-out: IC50, collagen production) | effect in CTGF assay ([3]; LX-2 cells) | IC50 (CYP3A4-M) | IC50 (CYP2C19) | IC50 (CYP2D6) | IC50 (CYP2C9) | SI (selectivity index) DDR2 vs DDR1 (hDDR2) | IC50 (hDDR2; read-out: IC50 towards DDR2 kinase) | concentration of maximum inhibition of α-actin expression ([1]; MRC-5) | maximum effect on α-actin expression ([1]; at 0.37 μM) | IC50 ([2]; LX-2 cells, read-out: IC50, collagen assay) | CTGF production prevented ([3]; 14 nM)
Cc1ccc2c(Nc3cccc(C(F)(F)F)c3)noc2c1C#Cc1cnc2cccnn12 [Compound 1] | 3.3 µM | 23 times | robust dose-dependent effect | 0.013 µM | did not show the inhibition effect | > 50 µM | > 50 µM | > 50 µM | > 50 µM |  |  |  |  |  | 
O=C(Nc1cccc(C(=O)N2CCN(c3ccnc4[nH]ccc34)C2)c1)c1cccc(C(F)(F)F)c1 [Compound 2] | 7.3 µM |  |  |  |  | 7.36 µM | 6.56 µM | 6.97 µM | 2.7 µM | 3.6 | 0.076 µM | 0.37 µM | 1.5 fold | > 10 µM | 43%
